Results reported in EP3501511A1, “MEANS FOR PREVENTING AND TREATING BRAIN METASTASIS” (Fundación Centro Nacional De Investigaciones Oncológicas …, priority 2017, dated 2019).

Columns and labels:
482N1 = experiment: cKO-Stat3 brain slice cultures with established metastases treated with 4OH-Tamoxifen (BLI); type: cell-based, mouse; conditions: 4OH-Tamoxifen 1 µM; n≥ 4 brain slices per condition, P=0.013
Source text: (§1) To test the functional contribution of pStat3+ RA in brain metastasis we generated GFAP-Cre/ERT2;Stat3loxP/loxP (cKO-Stat3) mice in which syngeneic brain metastatic (BrM) cells, labeled with Luciferase and Gfp (Green fluorescent protein), were intracardiacally inoculated. We used two BrM models including lung adenocarcinoma model (482N1) and melanoma model (B16/F10-BrM). These syngeneic models have gained brain tropism while retaining an aggressive extracranial metastatic potential (Valiente, M. et al. Cell 156, 1002-1016 (2014) and also as disclosed herein). […] We confirmed Stat3 depletion from RA under these experimental conditions (Fig.2). […] In order to analyze the effect of Stat3 deletion in RA once brain metastases have developed, and given the limited time available in vivo before mice reach the humane endpoint, we cultured ex vivo cKO-Stat3 brain slices containing 2 weeks old lesions grown in mice (Fig. 4A). […]
(§2) Treatments to brain slices were given once during the experiment (4OH-Tmx, 1 µM, Sigma-Aldrich, ref. H7904; WP1066, 10 µM, Merck, ref. 573097; Doxycycline, 1 µg/ml, Sigma-Aldrich, ref. D9891; silibinin, 100 µM, Sigma-Aldrich, ref. S0417) by adding them to the media. […] Analysis of the knockdown level in H2030-BrM (Fig. 4F) was analyzed in a homogenate containing the mouse brain tissue and human cancer cells. […]

B16/F10-BrM [1] = experiment: as above; type: cell-based, mouse; conditions: 4OH-Tamoxifen 1 µM; n≥ 8 brain slices per condition, P=0.012
Source text: as §1, §2

Mouse astrocytes = experiment: Astrosphere assay; type: cell-based
Experimental: Mouse astrocytes were treated with conditioned media from BrM cell lines or with recombinant mouse protein including Egf (0.01 µg/ml, R&D Systems, ref. 2028-EG- 200), Mif (0.1 µg/ml, R&D Systems, ref. 1978-MF-0257CF) and Tgfα (0.1 µg/ml, R&D Systems, ref. 239-A-100) during 96 hours. After this treatment 10^4 astrocytes were seeded in low attachment plates and incubated for seven days in the presence of the same media to evaluate the ability to form astrospheres. Conditioned media from BrM cell lines were obtained after 3 days incubation of cancer cells in DMEM supplemented with 0.25 % FBS, 2 mM L-Glutamine, 100 IU/ml penicillin/streptomycin and […] amphotericin B. After being collected, the media was filtered and added to astrocytes. Conditioned media from astrospheres was collected, filtered and added to activated CD8 cells (Fig. 7P) or wild type brain slices (Fig. 7T).

B16/F10-BrM [2] = experiment: Tamoxifen-induced Stat3 depletion in reactive astrocytes of cKO-Stat3 mice inoculated with B16/F10-BrM; type: in vivo
Source text: To test the functional contribution of pStat3+ RA in brain metastasis we generated GFAP-Cre/ERT2;Stat3loxP/loxP (cKO-Stat3) mice in which syngeneic brain metastatic (BrM) cells, labeled with Luciferase and Gfp (Green fluorescent protein), were intracardiacally inoculated. We used two BrM models including lung adenocarcinoma model (482N1) and melanoma model (B16/F10-BrM). […] In order to analyze the effect of Stat3 deletion in RA once brain metastases have developed, and given the limited time available in vivo before mice reach the humane endpoint, we cultured ex vivo cKO-Stat3 brain slices containing 2 weeks old lesions grown in mice (Fig. 4A).
All animal experiments were performed in accordance with a protocol approved by the CNIO, Instituto de Salud Carlos III and Comunidad de Madrid Institutional Animal Care and Use Committee. Athymic nu/nu (Harlan), and C57BL/6 mice 4-6 weeks of age were used. cKO-Stat3 was generated by breeding GFAP-CRE/ERT2 (B6.Cg- Tg(GFAP-cre/ERT2)505Fmv/J, Jackson Labs, ref. 012849) with Stat3loxP/loxP16.
Brain metastatic derivative of a syngeneic B16/F10 model (B16/F10-BrM) was established according to a previous protocol (Bos, P. D. et al. Nature 459, 1005-1009 (2009); Nguyen, D. X. et al. Cell 138, 51-62 (2009)). Brain colonization assays were performed injecting 100 µl of PBS into the left ventricle containing 100,000 cancer cells. Brain colonization was analyzed in vivo and ex vivo by bioluminescence imaging. Anesthetized mice (Isofluorane) were injected retro-orbitally with D-Luciferin (150 mg/kg) and imaged with an IVIS Spectrum Xenogen machine (Caliper Life Sciences). Bioluminescence analysis was performed using Living Image software, version 3. […] Silibinin in the formula of Legasil® was administered by oral gavage daily the same day cancer cells were inoculated (200mg/kg) and until mice reached the endpoint of the experiment.

[3] = Tamoxifen treated cKO-Stat3 mice, n=7 metastases

With `CC/C(=C(\c1ccc(O)cc1)c1ccc(OCCN(C)C)cc1)c1ccccc1` [4OH-Tamoxifen] the “growth of established metastases scored with BLI” value (482N1) was “impaired the growth of established metastases”, the “growth of established metastases scored with BLI” value (B16/F10-BrM [1]) was “impaired the growth of established metastases” and the formation of astrospheres (Mouse astrocytes; cKO-Stat3 derived astrocytes induced by the cytokine cocktail, 4OH-Tamoxifen 1µM) was “unable to generate astrospheres”.
With `CC/C(=C(\c1ccccc1)c1ccc(OCCN(C)C)cc1)c1ccccc1` [Tamoxifen] the “metastases of Score 0 (no pStat3 signal) in the surrounding microenvironment” value (B16/F10-BrM [2]; Tamoxifen treated cKO-Stat3 mice) was 66.7%, the “metastases of Score 1 (low pStat3 signal) in the surrounding microenvironment” value (B16/F10-BrM [2]; [3]) was 22.2% and the “metastases of Score 2 (high pStat3 signal) in the surrounding microenvironment” value (B16/F10-BrM [2]; [3]) was 11.1%. For the same compound, the “CD74+/Iba1+ cells infiltrating metastasis” value (B16/F10-BrM [2]; cKO-Stat3 brains treated with tamoxifen) was “less CD74+/lba1+ cells infiltrating metastasis”.
`C[C@H](NC(=O)/C(C#N)=C/c1cccc(Br)n1)c1ccccc1` [WP1066] was tested, and the formation of astrospheres (Mouse astrocytes; primary astrocytes in the presence of the cytokine cocktail (Egf, Tgfα, Mif)) was “impairs the formation of astrospheres”.
